The values below are quoted from earlier work in patent US20190135859A1, “METHOD OF MANUFACTURING A PHARMACEUTICAL COMPOSITION” (FERRING B.V., priority 2017, published 2019).

The structures appear in SMILES notation. Starred links: 1 amine or outer side, 2 acyl side, 3 side chain; linkers in the order of their positions; H or OH if unused. Positions of bridges follow the written chain, without caps; N, C: chain ends. Residues, ends and D or L forms follow the SMILES beside them. X1 = O=C(CCC[*:2])[*:1]

Data set [1] relates to human oxytocin (hOT) receptor versus human V2 (hV2) receptor. The following applies: ratio of EC50 values; see Table 2 in WO2009/122285.
The subject of data set [2] is Prader-Willi Syndrome patients. The conditions noted are these: after 15 days, versus placebo treated patients, as described in WO2016/044131.

Consider `CC[C@H](C)[C@@H]1NC(=O)[C@H](Cc2ccc(O)cc2)NC(=O)[C@@H](N)CSSC[C@@H](C(=O)N2CCC[C@H]2C(=O)N[C@@H](CC(C)C)C(=O)NCC(N)=O)NC(=O)[C@H](CC(N)=O)NC(=O)[C@H](CCC(N)=O)NC1=O` [Oxytocin, oxytocin], for which the “hV2/hOT selectivity ratio (EC50 hV2/EC50 hOT)” value in data set [1] is recorded as 3.
`CC[C@H](C)[C@@H]1NC(=O)[C@H](Cc2ccc(OC)cc2)NC(=O)CCCSC[C@@H](C(=O)N2CCC[C@H]2C(=O)N[C@@H](CC(C)C)C(=O)NCC(N)=O)NC(=O)[C@H](CC(N)=O)NC(=O)[C@H](CCC(N)=O)NC1=O` [carbetocin, (1-desamino-1-monocarba-2(O-methyl)-tyrosine)oxytocin] (Y(Me)IQNCPLG-NH2; linker N-5 via X1): the “hV2/hOT selectivity ratio (EC50 hV2/EC50 hOT)” value in data set [1] is 244. The “improvement over placebo in measurements of hyperphagia, obsessive compulsive disorder, food seeking behaviour and clinical global impression” value in data set [2] is listed as “statistically significant improvement”.
